Reference: US4318916A, “Antibiotic PS-5 and derivatives having β-lactamase inhibitory activity and production thereof” (Sanraku-Ocean Co., Ltd., priority 1977, dated 1982)
Converted amounts (≈) assume the structure as drawn. Like-named read-outs stand apart in the source and are kept apart here.

Tests used:
Citrobacter freundii E-9 [1] = experiment: Potentiation disc assay with penicillin G (Table 9); format: cell-based; conditions: for Inhibition zone With pen. G: 50 μg/ml penicillin G in agar
Procedure: (§1) (A) Ten milliliters of molten nutrient agar containing 50 μg/ml of penicillin G or cephaloridine, 0.8% of Kyokuto Nutrient Broth Powder and 1.0% of Difco Bacto-Agar (pH 7.0) were seeded with the beta-lactam-resistant, beta-lactamase-producing microorganisms indicated in Tables 9 and 10, and poured in a 9-cm Petri dish to provide the bio-assay agar plate. On this assay plate, 8-mm pulp discs containing 25 μl each of antibiotic PS-5 solutions at the indicated concentrations were placed and incubated at 35° C. for 18 hours before reading the inhibition zones. The control assay plate was similarly prepared without penicillin G nor cephaloridine. As reference antibiotics, penicillin G, ampicillin, oxacillin and cefazolin were disc-assayed under the same conditions.

Proteus vulgaris P-5 [2] = experiment: as above; format: cell-based; conditions: for Inhibition zone With pen. G: 50 μg/ml penicillin G in agar
Procedure: as §1

Enterobacter sp. E-8 [3] = experiment: as above; format: cell-based; conditions: for Inhibition zone With pen. G: 50 μg/ml penicillin G in agar
Procedure: as §1

Proteus sp. P-22 [4] = experiment: as above; format: cell-based; conditions: for Inhibition zone With pen. G: 50 μg/ml penicillin G in agar
Procedure: as §1

[5] = Solubility of antibiotic PS-5; format: physicochemical
Providencia sp. P-8 = experiment: MIC by broth dilution (Table 8); format: cell-based; conditions: SP.P8, 20 h, resistant to kanamycin, gentamicin and tobramycin, read-out: Minimum inhibitory concentration
Procedure: (§2) The MIC values of antibiotic PS-5 sodium salt were determined on various pathogenic microorganisms including resistant strains by the broth dilution method utilizing the BRAIN HEART INFUSION BROTH `Eiken` (EIKEN CHEMICAL CO., LTD.).
(§3) The antibiotic PS-5 sodium salt was dissolved in BRAIN HEART INFUSION BROTH `Eiken` (EIKEN CHEMICAL CO., LTD.) (pH 7.0) at concentration in the range of 5-50 μg/ml, from which appropriate dilution series were made in the same liquid medium. The microorganisms listed in Table 8 were cultivated for 18 hours in BRAIN HEART INFUSION BROTH `Eiken` at 28° C. and inoculated into the said dilution series of antibiotic PS-5 at a final inoculum size of 1×10^5 cells/ml. The cultures were allowed to stand at 35° C. for 20 hours, and then the growth of the microorganisms was read at each dilution of antibiotic PS-5. The minimum inhibitory concentration (MIC) represents the smallest concentration of the antibiotic PS-5 (sodium salt) where no propagation of the relevant microorganism was visually confirmed. As the controls, two known beta-lactam antibiotics, cephaloridine and cefoxitin were dissolved in brain heart infustion broth at pH 7.0 at concentrations ranging from 1 μg/ml to 100 μ g/ml and then diluted to make several dilution series in the above mentioned liquid medium. These samples were treated as described above for the MIC determinations. In addition to the MIC values of antibiotic PS-5, those of cephaloridine and cefoxitin are included for reference.

Citrobacter freundii E-9 [6] = experiment: MIC by broth dilution (Table 8); format: cell-based; conditions: E9, 20 h, read-out: Minimum inhibitory concentration
Procedure: as §2, §3

[7] = test system: Enterobacter cloacae E-16; experiment: MIC by broth dilution (Table 8); format: cell-based; conditions: E16, 20 h, betalactamase producer, read-out: Minimum inhibitory concentration
Procedure: as §2, §3

Proteus vulgaris P-5 [8] = experiment: MIC by broth dilution (Table 8); format: cell-based; conditions: P5, 20 h, betalactamase producer, read-out: Minimum inhibitory concentration
Procedure: as §2, §3

[9] = test system: Staphylococcus aureus Russell; experiment: MIC by broth dilution (Table 8); format: cell-based; conditions: 20 h, read-out: Minimum inhibitory concentration
Procedure: as §2, §3

Escherichia coli K 12 = experiment: MIC by broth dilution (Table 8); format: cell-based; conditions: K12, 20 h, read-out: Minimum inhibitory concentration
Procedure: as §2, §3

Proteus rettgeri P-7 = experiment: MIC by broth dilution (Table 8); format: cell-based; conditions: Providencia rettgeri, P7, 20 h, resistant to gentamicin and tobramycin, read-out: Minimum inhibitory concentration
Procedure: as §2, §3

[10] = test system: Alcaligenes faecalis B-326; experiment: MIC by broth dilution (Table 8); format: cell-based; conditions: B326, 20 h, read-out: Minimum inhibitory concentration
Procedure: as §2, §3

Serratia marcescens S-18 = experiment: MIC by broth dilution (Table 8); format: cell-based; conditions: S18, 20 h, betalactamase producer, read-out: Minimum inhibitory concentration
Procedure: as §2, §3

[11] = test system: Klebsiella pneumoniae K-2; experiment: MIC by broth dilution (Table 8); format: cell-based; conditions: K2, 20 h, betalactamase producer, read-out: Minimum inhibitory concentration
Procedure: as §2, §3

Enterobacter sp. E-8 [12] = experiment: MIC by broth dilution (Table 8); format: cell-based; conditions: SP.E8, 20 h, read-out: Minimum inhibitory concentration
Procedure: as §2, §3

Proteus sp. P-22 [13] = experiment: MIC by broth dilution (Table 8); format: cell-based; conditions: 20 h, read-out: Minimum inhibitory concentration
Procedure: as §2, §3

[14] = test system: Enterobacter aerogenes E-19; experiment: MIC by broth dilution (Table 8); format: cell-based; conditions: Klebsiella aerogenes, E19, 20 h, betalactamase producer, read-out: Minimum inhibitory concentration
Procedure: as §2, §3

Proteus mirabilis P-6 = experiment: MIC by broth dilution (Table 8); format: cell-based; conditions: P6, 20 h, resistant to kanamycin, gentamicin and tobramycin, read-out: Minimum inhibitory concentration
Procedure: as §2, §3

Compound: CCC1C(=O)N2C(C(=O)O)=C(SCCNC(C)=O)CC12 (single isomer, unassigned) [Antibiotic PS-5]
- zone of inhibition at 79.5 µg/mL (Citrobacter freundii E-9 [1]; E9, 18 h, PS-5 79.5 μg/ml, read-out: Inhibition zone Without pen. G): 10.4 mm
- zone of inhibition at 100 µg/mL (Citrobacter freundii E-9 [1]; E9, 18 h, PS-5 100 μg/ml, read-out: Inhibition zone Without pen. G): 13.2 mm
- zone of inhibition at 159 µg/mL (Citrobacter freundii E-9 [1]; E9, 18 h, PS-5 159 μg/ml, read-out: Inhibition zone Without pen. G): 17.2 mm
- zone of inhibition at 318 µg/mL (Citrobacter freundii E-9 [1]; E9, 18 h, PS-5 318 μg/ml, read-out: Inhibition zone Without pen. G): 20.8 mm
- Inhibition zone With pen. G (Citrobacter freundii E-9 [1]; PS-5 79.5 μg/ml): 13.1 mm
- Inhibition zone With pen. G (Citrobacter freundii E-9 [1]; PS-5 100 μg/ml): 15.2 mm
- Inhibition zone With pen. G (Citrobacter freundii E-9 [1]; PS-5 159 μg/ml): 19.2 mm
- Inhibition zone With pen. G (Citrobacter freundii E-9 [1]; PS-5 318 μg/ml): 23.0 mm
- zone of inhibition at 79.5 µg/mL (Proteus vulgaris P-5 [2]; P5, 18 h, PS-5 79.5 μg/ml, read-out: Inhibition zone Without pen. G): 0 mm
- zone of inhibition at 100 µg/mL (Proteus vulgaris P-5 [2]; P5, 18 h, PS-5 100 μg/ml, read-out: Inhibition zone Without pen. G): 10.3 mm
- zone of inhibition at 159 µg/mL (Proteus vulgaris P-5 [2]; P5, 18 h, PS-5 159 μg/ml, read-out: Inhibition zone Without pen. G): 14 mm
- zone of inhibition at 318 µg/mL (Proteus vulgaris P-5 [2]; P5, 18 h, PS-5 318 μg/ml, read-out: Inhibition zone Without pen. G): 16 mm
- Inhibition zone With pen. G (Proteus vulgaris P-5 [2]; PS-5 79.5 μg/ml): 18.3 mm
- Inhibition zone With pen. G (Proteus vulgaris P-5 [2]; PS-5 100 μg/ml): 22.2 mm
- Inhibition zone With pen. G (Proteus vulgaris P-5 [2]; PS-5 159 μg/ml): 24.5 mm
- Inhibition zone With pen. G (Proteus vulgaris P-5 [2]; PS-5 318 μg/ml): 26.6 mm
- Inhibition zone With pen. G (Enterobacter sp. E-8 [3]; PS-5 79.5 μg/ml): 11.0 mm
- Inhibition zone With pen. G (Enterobacter sp. E-8 [3]; PS-5 100 μg/ml): 13.8 mm
- Inhibition zone With pen. G (Enterobacter sp. E-8 [3]; PS-5 159 μg/ml): 17.5 mm
- Inhibition zone With pen. G (Enterobacter sp. E-8 [3]; PS-5 318 μg/ml): 20.0 mm
- zone of inhibition at 79.5 µg/mL (Enterobacter sp. E-8 [3]; SP.E8, 18 h, PS-5 79.5 μg/ml, read-out: Inhibition zone Without pen. G): 11 mm
- zone of inhibition at 100 µg/mL (Enterobacter sp. E-8 [3]; SP.E8, 18 h, PS-5 100 μg/ml, read-out: Inhibition zone Without pen. G): 13.8 mm
- zone of inhibition at 159 µg/mL (Enterobacter sp. E-8 [3]; SP.E8, 18 h, PS-5 159 μg/ml, read-out: Inhibition zone Without pen. G): 17.2 mm
- zone of inhibition at 318 µg/mL (Enterobacter sp. E-8 [3]; SP.E8, 18 h, PS-5 318 μg/ml, read-out: Inhibition zone Without pen. G): 20.1 mm
- zone of inhibition at 79.5 µg/mL (Proteus sp. P-22 [4]; 18 h, PS-5 79.5 μg/ml, read-out: Inhibition zone Without pen. G): 0 mm
- zone of inhibition at 100 µg/mL (Proteus sp. P-22 [4]; 18 h, PS-5 100 μg/ml, read-out: Inhibition zone Without pen. G): 0 mm
- zone of inhibition at 159 µg/mL (Proteus sp. P-22 [4]; 18 h, PS-5 159 μg/ml, read-out: Inhibition zone Without pen. G): 11.7 mm
- zone of inhibition at 318 µg/mL (Proteus sp. P-22 [4]; 18 h, PS-5 318 μg/ml, read-out: Inhibition zone Without pen. G): 13.6 mm
- Inhibition zone With pen. G (Proteus sp. P-22 [4]; PS-5 79.5 μg/ml): 12.8 mm
- Inhibition zone With pen. G (Proteus sp. P-22 [4]; PS-5 100 μg/ml): 13.8 mm
- Inhibition zone With pen. G (Proteus sp. P-22 [4]; PS-5 159 μg/ml): 18.2 mm
- Inhibition zone With pen. G (Proteus sp. P-22 [4]; PS-5 318 μg/ml): 21.4 mm
- Solubility in ethyl acetate and benzene ([5]; at pH above 4): substantially insoluble
- Solubility in water ([5]; water at pH 6 to 9): soluble
- MIC (Providencia sp. P-8): 6.25 µg/mL (≈ 20.9 µM)
- MIC (Citrobacter freundii E-9 [6]; Citrobacter freundii E-9, betalactamase producer): 3.13 µg/mL (≈ 10.5 µM)
- MIC [7]: 12.5 µg/mL (≈ 41.9 µM)
- MIC (Proteus vulgaris P-5 [8]): 12.5 µg/mL (≈ 41.9 µM)
- MIC ([9]; Staphylococcus aureus Russell, PS-5 as sodium salt): 0.31 µg/mL
- MIC (Escherichia coli K 12; Escherichia coli K 12): 2.5 µg/mL (≈ 8.38 µM)
- MIC (Proteus rettgeri P-7): 3.13 µg/mL (≈ 10.5 µM)
- MIC ([10]; Alcaligenes faecalis B-326): 0.78 µg/mL (≈ 2.61 µM)
- MIC (Serratia marcescens S-18): 6.25 µg/mL (≈ 20.9 µM)
- MIC [11]: 3.13 µg/mL (≈ 10.5 µM)
- MIC (Enterobacter sp. E-8 [12]; Enterobacter sp. E-8, betalactamase producer): 3.13 µg/mL (≈ 10.5 µM)
- MIC (Proteus sp. P-22 [13]; Proteus sp. P-22): 6.25 µg/mL (≈ 20.9 µM)
- MIC [14]: 6.25 µg/mL (≈ 20.9 µM)
- MIC (Proteus mirabilis P-6): 6.25 µg/mL (≈ 20.9 µM)

Compound: O=C(Cc1cccs1)N[C@@H]1C(=O)N2C(C(=O)[O-])=C(C[n+]3ccccc3)CS[C@H]12 [Cephaloridine, cephaloridine]
- MIC (Providencia sp. P-8): > 100 µg/mL
- MIC (Citrobacter freundii E-9 [6]; Citrobacter freundii): > 100 µg/mL
- MIC [7]: > 100 µg/mL
- MIC (Proteus vulgaris P-5 [8]): > 100 µg/mL
- MIC ([9]; Staphylococcus aureus): 0.125 µg/mL (≈ 0.301 µM)
- MIC (Escherichia coli K 12; Escherichia coli): 2.5 µg/mL (≈ 6.02 µM)
- MIC (Proteus rettgeri P-7): 100 µg/mL (≈ 241 µM)
- MIC ([10]; Alcaligenes faecalis): 6.25 µg/mL (≈ 15 µM)
- MIC (Serratia marcescens S-18): > 100 µg/mL
- MIC [11]: 6.25 µg/mL (≈ 15 µM)
- MIC (Enterobacter sp. E-8 [12]; Enterobacter): 3.13 µg/mL (≈ 7.53 µM)
- MIC (Proteus sp. P-22 [13]): > 100 µg/mL
- MIC [14]: > 100 µg/mL
- MIC (Proteus mirabilis P-6): 12.5 µg/mL (≈ 30.1 µM)
